From US10342796B2, “Acrylanilide derivative, preparation method, and applications thereof in pharmacy” (Ancureall Pharmaceutical (Shanghai) Co., Ltd., priority 2015, dated 2019)

Tests used:
Experiment in all cases: Growth inhibition GI50 in vitro (CCK8/MTT, 72 h)
Assay type in all cases: cell-based, human
H1975 (EGFR L858R/T790M) = details: Homo sapiens, NCI-H1975; EGFR mutant cell line; range of GI50; read-out: GI50 H1975
HCC827 (EGFR dE746-A750) = details: Homo sapiens, HCC827; EGFR mutant cell line; range of GI50; read-out: GI50 HCC827
PC-9 (EGFR dE746-A750) = details: Homo sapiens; EGFR mutant cell line; range of GI50; read-out: GI50 PC-9
[1] = test system: PC-9ER (EGFR delE746-A750/T790M); details: Homo sapiens, PC-9/ER; EGFR mutant cell line; range of GI50; read-out: GI50 PC9ER
N87 (HER2 Amp) = details: Homo sapiens; HER2 positive cell line; range of GI50; read-out: GI50 N87
AU565 (Her2 amp) = details: Homo sapiens, AU565; HER2 positive cell line; range of GI50; read-out: GI50 AU-565
SK-BR-3 (Her2 amp) = details: Homo sapiens, SK-BR-3; HER2 positive cell line; range of GI50; read-out: GI50 SK-BR-3
[2] = test system: A431 (EGFR WT, amplification and high expression); details: Homo sapiens, A-431; EGFR wild type cell line; range of GI50; read-out: GI50 A431
A549 (EGFR WT) = details: Homo sapiens, A549; EGFR wild type cell line; range of GI50; read-out: GI50 A549
[3] = test system: H1299 (EGFR wt, Nras Q61K); details: Homo sapiens, NCI-H1299; EGFR wild type cell line; range of GI50; read-out: GI50 H1299
[4] = test system: H460 (EGFR wt, Kras G61H); details: Homo sapiens, NCI-H460; EGFR wild type cell line; range of GI50; read-out: GI50 H460

Row | Compound | GI50 (H1975 (EGFR L858R/T790M)) | GI50 (HCC827 (EGFR dE746-A750)) | GI50 (PC-9 (EGFR dE746-A750)) | GI50 [1] | GI50 (N87 (HER2 Amp)) | GI50 (AU565 (Her2 amp)) | GI50 (SK-BR-3 (Her2 amp)) | GI50 [2] | GI50 (A549 (EGFR WT)) | GI50 [3] | GI50 [4]
1 | C=CC(=O)Nc1cc(Nc2cc(-c3cn(C)c4ccccc34)ncn2)c(OC)cc1N1CCN(CCN2CCCC2)CC1 [Compound 165, N-(4-methoxyl-5-(6-(1-methyl-1H-indol-3-yl)-pyrimidin-4-ylamino)-2-(4-(2-(pyrrolidin-1-yl)-ethyl)-piperazin-1-yl)-phenyl)-acrylamide] | 100 to 1000 nM | 10 to 100 nM | < 10 nM | 10 to 100 nM | 100 to 1000 nM | 100 to 1000 nM | 100 to 1000 nM | 10 to 100 nM | > 1000 nM | > 1000 nM | > 1000 nM
2 | C=CC(=O)Nc1cc(Nc2cc(-c3cn(C)c4ccccc34)ncn2)c(OC)cc1N(C)CCN1CCCC1 [Compound 178, N-(4-methoxyl-5-(6-(1-methyl-1H-indol-3-yl)-pyrimidin-4-ylamino)-2-(methyl-(2-pyrrolidin-1-yl-ethyl)-amino)-phenyl)-acrylamide] | 10 to 100 nM | < 10 nM | < 10 nM | 10 to 100 nM | 10 to 100 nM | 100 to 1000 nM | 100 to 1000 nM | 100 to 1000 nM | > 1000 nM | > 1000 nM | > 1000 nM
3 | C=CC(=O)Nc1cc(Nc2cc(-c3cn(CC)c4ccccc34)ncn2)c(OC)cc1N(C)CCN(C)C [Compound 181, N-{2-((2-dimethylamino-ethyl)-methylamino)-5-[6-(1-ethyl-1H-indol-3-yl)-pyrimidin-4-ylamino]-4-methoxyl-phenyl}-acrylamide] | 10 to 100 nM | < 10 nM | < 10 nM | < 10 nM | 10 to 100 nM | 10 to 100 nM | 10 to 100 nM | 100 to 1000 nM | > 1000 nM | > 1000 nM | > 1000 nM
4 | C=CC(=O)Nc1cc(Nc2cc(-c3cn(CCC)c4ccccc34)ncn2)c(OC)cc1N(C)CCN(C)C [Compound 182] | 10 to 100 nM | 10 to 100 nM | 10 to 100 nM | 10 to 100 nM | 100 to 1000 nM | 10 to 100 nM | 10 to 100 nM | 100 to 1000 nM | > 1000 nM | > 1000 nM | > 1000 nM
5 | C=CC(=O)Nc1cc(Nc2cc(-c3cn(C)c4cc(F)ccc34)ncn2)c(OC)cc1N(C)CCN(C)C [Compound 186, N-(4-methoxyl-5-(6-(6-fluoro-1-methyl-1H-indol-3-yl)-pyrimidin-4-ylamino)-2-(2-(dimethylamino-ethyl)-methyl-amino)-phenyl)-acrylamide] | 10 to 100 nM | 10 to 100 nM | 10 to 100 nM | 10 to 100 nM | 10 to 100 nM | 10 to 100 nM | 10 to 100 nM | 100 to 1000 nM | > 1000 nM | > 1000 nM | > 1000 nM
6 | C=CC(=O)Nc1cc(Nc2cc(-c3cn(C)c4ccc(F)cc34)ncn2)c(OC)cc1N(C)CCN(C)C [Compound 188, N-(2-((2-dimethylamino-ethyl)-methylamino)-5-(6-(5-fluoro-1-methyl-1H-indol-3-yl)-pyrimidin-4-ylamino)-4-methoxyl-phenyl)-acrylamide] | 10 to 100 nM | < 10 nM | < 10 nM | < 10 nM | 10 to 100 nM | 10 to 100 nM | < 10 nM | 100 to 1000 nM | > 1000 nM | > 1000 nM | > 1000 nM
7 | C=CC(=O)Nc1cc(Nc2cc(-c3cn(C4CCCC4)c4ccc(F)cc34)ncn2)c(OC)cc1N(C)CCN(C)C [Compound 193, N-(5-(6-(5-fluoro-1-cyclopentyl-1H-indol-3-yl)-pyrimidin-4-ylamino)-4-methoxyl-2-((2-dimethylamino-ethyl)-methyl-amino)-phenyl)-acrylamide] | 10 to 100 nM | < 10 nM | < 10 nM | 10 to 100 nM | 100 to 1000 nM | 100 to 1000 nM | > 1000 nM | > 1000 nM | > 1000 nM | > 1000 nM | > 1000 nM
